Experimental data as given in PMC5648515, “A novel small molecule inhibitor of p32 mitochondrial protein overexpressed in glioma” (Journal of Translational Medicine, 2017).

Target: T1, p32 (C1qBP) (Homo sapiens, UniProt Q07021)
T1 construct: Human recombinant p32 (OriGene)
T1 sequence (Q07021 74-282): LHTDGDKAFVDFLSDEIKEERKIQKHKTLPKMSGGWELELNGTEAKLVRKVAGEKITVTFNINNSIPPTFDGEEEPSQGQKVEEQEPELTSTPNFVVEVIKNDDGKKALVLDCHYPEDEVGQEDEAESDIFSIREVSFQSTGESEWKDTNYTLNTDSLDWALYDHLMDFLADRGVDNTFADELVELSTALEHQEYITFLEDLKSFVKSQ
Assay: fluorescence polarization competition with 5-FAM-labelled cyclic LyP-1 peptide; protein thermal shift with […] M36
Type: binding

## O=C(NCCCNC(=O)Nc1cccc(C2=NCCN2)c1)Nc1cccc(C2=NCCN2)c1 [M36]
  p32 thermal shift stability change: P32 protein stability was altered by M36 as observed by a shift in the melting curve of the protein
